Measured values as given in ChEMBL document CHEMBL5149986, “Spliceostatins and Derivatives: Chemical Syntheses and Biological Properties of Potent Splicing Inhibitors” (J Nat Prod, 2021).
Square brackets hold non-standard residues; d marks the D form. Peptide text beside a SMILES is read from it. * marks the point of attachment. Dolaproine = CO[C@@H]([C@@H]1CCCN1)[C@@H](C)C(=O)O; Dil = CC[C@H](C)[C@H](NC)[C@@H](CC(=O)O)OC; X1 = C[C@@H](N*)[C@@H](O)c1ccccc1; NMeV = CN[C@H](C(=O)O)C(C)C

Tests used:
[1] = test system: MES-SA/Dx5; test: Cytotoxicity against human MES-SA/Dx5 cells assessed as inhibition in cell growth; assay type: functional, cell-based
[2] = Cytotoxicity against HEK293T cells assessed as inhibition in cell growth; assay type: toxicity, cell-based, HEK-293T; details: human
[3] = test system: MES-SA; test: Cytotoxicity against human MES-SA cells assessed as inhibition in cell growth; assay type: functional, cell-based

CO[C@@H]1C[C@@]2(CO2)[C@H](O)[C@@H](/C=C/C(C)=C/C[C@@H]2O[C@H](C)[C@H](NC(=O)/C=C\[C@H](C)OC(=O)N(C)C)C[C@@H]2C)O1
IC50 [1]: 2.01 nM | IC50 [2]: 0.09 nM | IC50 [3]: 1.08 nM

CC(=O)O[C@@H](C)/C=C\C(=O)N[C@@H]1C[C@H](C)[C@H](C/C=C(C)/C=C/[C@H]2O[C@H](CC(C)(C)O)C[C@@]3(CO3)[C@@H]2O)O[C@@H]1C
IC50 [1]: 2.96 nM | IC50 [2]: 0.08 nM | IC50 [3]: 0.64 nM

CC(/C=C/[C@H]1O[C@H](CC(=O)OC(C)(C)C)C[C@@](O)(CCl)[C@@H]1O)=C\C[C@@H]1O[C@H](C)[C@H](NC(=O)/C=C\[C@H](C)OC(=O)C(C)C)C[C@@H]1C
IC50 [1]: 10.3 nM | IC50 [2]: 0.13 nM | IC50 [3]: 264 nM

CC(=O)O[C@@H](C)/C=C\C(=O)N[C@@H]1C[C@H](C)[C@H](C/C=C(C)/C=C/[C@H]2O[C@H](CCO)C[C@@]3(CO3)[C@@H]2O)O[C@@H]1C
IC50 [1]: 3.21 nM | IC50 [2]: 0.007 nM | IC50 [3]: 0.072 nM

CC(/C=C/[C@H]1O[C@H](C)C[C@@]2(CO2)[C@@H]1O)=C\C[C@@H]1O[C@H](C)[C@H](NC(=O)/C=C\[C@H](C)NC(=O)N2CCCCC2)C[C@@H]1C
IC50 [1]: 64 nM | IC50 [2]: 0.041 nM | IC50 [3]: 3.19 nM

CC(=O)O[C@@H](C)/C=C\C(=O)N[C@@H]1C[C@H](C)[C@H](C/C=C(C)/C=C/[C@H]2O[C@H](CCC#N)C[C@@]3(CO3)[C@@H]2O)O[C@@H]1C
IC50 [1]: 2.6 nM | IC50 [2]: 0.099 nM | IC50 [3]: 0.82 nM

CC(/C=C/[C@H]1O[C@H](C)C[C@@]2(CO2)[C@@H]1O)=C\C[C@@H]1O[C@H](C)[C@H](NC(=O)/C=C\[C@H](C)NC(=O)N2CCOCC2)C[C@@H]1C
IC50 [1]: 100 nM | IC50 [2]: 0.3 nM | IC50 [3]: 2.87 nM

CC(=O)O[C@@H](C)/C=C\C(=O)N[C@@H]1C[C@H](C)[C@H](C/C=C(C)/C=C/[C@H]2O[C@H](CCN=[N+]=[N-])C[C@@]3(CO3)[C@@H]2O)O[C@@H]1C
IC50 [1]: 0.72 nM | IC50 [2]: 0.028 nM | IC50 [3]: 1.08 nM

CNC(=O)O[C@@H]1[C@@H](/C=C/C(C)=C/C[C@@H]2O[C@H](C)[C@H](NC(=O)/C=C\[C@H](C)OC(C)=O)C[C@@H]2C)O[C@H](OC)C[C@@]12CO2
IC50 [1]: 76.1 nM | IC50 [2]: 10.1 nM | IC50 [3]: 76.7 nM

CO[C@@H]1C[C@@]2(CO2)[C@H](O)[C@@H](/C=C/C(C)=C/C[C@@H]2O[C@H](C)[C@H](NC(=O)/C=C\[C@H](C)OC(=O)N3CCOCC3)C[C@@H]2C)O1
IC50 [1]: 13.8 nM | IC50 [2]: 0.006 nM | IC50 [3]: 0.49 nM

CC(/C=C/[C@H]1O[C@H](CC(=O)OC2CC2)C[C@@]2(CO2)[C@@H]1O)=C\C[C@@H]1O[C@H](C)[C@H](NC(=O)/C=C\[C@H](C)OC(=O)C(C)C)C[C@@H]1C
IC50 [1]: 16.1 nM | IC50 [2]: 0.218 nM | IC50 [3]: 2.15 nM

CC(/C=C/[C@H]1O[C@H](CC(=O)OC(C)(C)C)C[C@@]2(CO2)[C@@H]1O)=C\C[C@@H]1O[C@H](C)[C@H](NC(=O)/C=C\[C@H](C)OC(=O)C(C)C)C[C@@H]1C
IC50 [1]: 4.83 nM | IC50 [2]: 0.099 nM | IC50 [3]: 11.3 nM

CC(/C=C/[C@H]1O[C@H](CC(=O)NCCC(=O)O)C[C@@]2(CO2)[C@@H]1O)=C\C[C@@H]1O[C@H](C)[C@H](NC(=O)/C=C\[C@H](C)OC(=O)C(C)C)C[C@@H]1C
IC50 [1]: 74 nM | IC50 [2]: 1.44 nM | IC50 [3]: 4.58 nM

CCOC(=O)/C=C/C[C@@H]1C[C@@]2(CO2)[C@H](O)[C@@H](/C=C/C(C)=C/C[C@@H]2O[C@H](C)[C@H](NC(=O)/C=C\[C@H](C)OC(=O)C(C)C)C[C@@H]2C)O1
IC50 [1]: 2.73 nM | IC50 [2]: 0.09 nM | IC50 [3]: 2.96 nM

COC(=O)C[C@@H]1C[C@@]2(CO2)[C@H](O)[C@@H](/C=C/C(C)=C/C[C@@H]2O[C@H](C)[C@H](NC(=O)/C=C\[C@H](C)NC(=O)C(C)C)C[C@@H]2C)O1
IC50 [1]: 384 nM | IC50 [2]: 0.058 nM | IC50 [3]: 6.16 nM

CC(=O)O[C@@H](C)/C=C\C(=O)N[C@@H]1C[C@H](C)[C@H](C/C=C(C)/C=C/[C@H]2O[C@H](CC(=O)OC(C)(C)C)C[C@@]3(CO3)[C@@H]2O)O[C@@H]1C
IC50 [1]: 0.48 nM | IC50 [2]: 0.005 nM | IC50 [3]: 1.37 nM

CC(=O)O[C@@H](C)/C=C\C(=O)N[C@@H]1C[C@H](C)[C@H](C/C=C(C)/C=C/[C@H]2O[C@H](CC(=O)O)C[C@@]3(CO3)[C@@H]2O)O[C@@H]1C [THAILANSTATIN A]
IC50 [1]: > 400 nM | IC50 [2]: 296 nM | IC50 [3]: 419 nM

CO[C@@H]1C[C@@]2(CN2)[C@H](O)[C@@H](/C=C/C(C)=C/C[C@@H]2O[C@H](C)[C@H](NC(=O)/C=C\[C@H](C)OC(C)=O)C[C@@H]2C)O1
IC50 [1]: 210 nM | IC50 [2]: 0.144 nM | IC50 [3]: 0.6 nM

CC(/C=C/[C@H]1O[C@H](C)C[C@@]2(CO2)[C@@H]1O)=C\C[C@@H]1O[C@H](C)[C@H](NC(=O)/C=C\[C@H](C)OC(=O)N(C)C)C[C@@H]1C
IC50 [1]: 0.14 nM | IC50 [2]: 0.003 nM | IC50 [3]: 0.04 nM

CO[C@@H]1C[C@@]2(CO2)[C@H](O)[C@@H](/C=C/C(C)=C/C[C@@H]2O[C@H](C)[C@H](NC(=O)/C=C\[C@H](C)OC(=O)N3CCCCC3)C[C@@H]2C)O1
IC50 [1]: 3.35 nM | IC50 [2]: 0.11 nM | IC50 [3]: 3.71 nM

CC(/C=C/[C@H]1O[C@H](CC(=O)O)C[C@@](O)(CCl)[C@@H]1O)=C\C[C@@H]1O[C@H](C)[C@H](NC(=O)/C=C\[C@H](C)OC(=O)C(C)C)C[C@@H]1C [THAILANSTATIN C]
IC50 [1]: 298 nM | IC50 [2]: 64.7 nM | IC50 [3]: 137 nM

CC(/C=C/[C@H]1O[C@H](C)C[C@@]2(CO2)[C@@H]1O)=C\C[C@@H]1O[C@H](C)[C@H](NC(=O)/C=C\[C@H](C)OC(=O)N2CCCCC2)C[C@@H]1C
IC50 [1]: 0.57 nM | IC50 [2]: 0.07 nM | IC50 [3]: 0.5 nM

CC(/C=C/[C@H]1O[C@H](C)C[C@@]2(CO2)[C@@H]1O)=C\C[C@@H]1O[C@H](C)[C@H](NC(=O)/C=C\[C@H](C)OC(=O)N2CCOCC2)C[C@@H]1C
IC50 [1]: 1.48 nM | IC50 [2]: 0.08 nM | IC50 [3]: 0.38 nM

CC[C@H](C)[C@@H]([C@@H](CC(=O)N1CCC[C@H]1[C@H](OC)[C@@H](C)C(=O)N[C@H](C)[C@@H](O)c1ccccc1)OC)N(C)C(=O)[C@@H](NC(=O)[C@@H](NC)C(C)C)C(C)C (H-[NMeV]V[Dil][Dolaproine]-X1)
IC50 [1]: 88.2 nM | IC50 [2]: 0.068 nM | IC50 [3]: 0.096 nM

CC(=O)O[C@@H](C)/C=C\C(=O)N[C@@H]1C[C@H](C)[C@H](C/C=C(C)/C=C/[C@H]2O[C@H](C)C[C@@]3(CO3)[C@@H]2O)O[C@@H]1C
IC50 [1]: 0.56 nM | IC50 [2]: 0.1 nM | IC50 [3]: 0.55 nM

CO[C@@H]1C[C@@]2(CO2)[C@H](O)[C@@H](/C=C/C(C)=C/C[C@@H]2O[C@H](C)[C@H](NC(=O)/C=C\[C@H](C)OC(=O)N(C)CCO)C[C@@H]2C)O1
IC50 [1]: 11 nM | IC50 [2]: 0.009 nM | IC50 [3]: 0.63 nM

CC(=O)O[C@@H](C)/C=C\C(=O)N[C@@H]1C[C@H](C)[C@H](C/C=C(C)/C=C/[C@H]2O[C@H](CCNC(=O)OC(C)(C)C)C[C@@]3(CO3)[C@@H]2O)O[C@@H]1C
IC50 [1]: 1.8 nM | IC50 [2]: 0.004 nM | IC50 [3]: 0.13 nM

CO[C@@H]1C[C@@]2(CO2)[C@H](OC(C)=O)[C@@H](/C=C/C(C)=C/C[C@@H]2O[C@H](C)[C@H](NC(=O)/C=C\[C@H](C)OC(C)=O)C[C@@H]2C)O1
IC50 [1]: 1.98 nM | IC50 [2]: 0.031 nM | IC50 [3]: 1.76 nM

CC(/C=C/[C@H]1O[C@H](C)C[C@@]2(CO2)[C@@H]1O)=C\C[C@@H]1O[C@H](C)[C@H](NC(=O)/C=C\[C@H](C)OC(=O)N2CCN(C(=O)OC(C)(C)C)CC2)C[C@@H]1C
IC50 [1]: 7.01 nM | IC50 [2]: 0.018 nM | IC50 [3]: 2.87 nM

CO[C@@H]1C[C@@]2(CO2)[C@H](O)[C@@H](/C=C/C(C)=C/C[C@@H]2O[C@H](C)[C@H](NC(=O)/C=C\[C@H](C)NC(=O)C(C)C)C[C@@H]2C)O1
IC50 [1]: 384 nM | IC50 [2]: 0.058 nM | IC50 [3]: 6.16 nM

CC(=O)O[C@@H](C)/C=C\C(=O)N[C@@H]1C[C@H](C)[C@H](C/C=C(C)/C=C/[C@H]2O[C@H](CC(=O)OC(C)(C)C)C[C@@](O)(CCl)[C@@H]2O)O[C@@H]1C
IC50 [1]: 5.16 nM | IC50 [2]: 0.033 nM | IC50 [3]: 14.9 nM

CC(/C=C/[C@H]1O[C@H](C)C[C@@]2(CO2)[C@@H]1O)=C\C[C@@H]1O[C@H](C)[C@H](NC(=O)/C=C\[C@H](C)NC(=O)N(C)C)C[C@@H]1C
IC50 [1]: > 16 nM | IC50 [2]: 0.28 nM | IC50 [3]: 1.97 nM

CC(=O)O[C@H]1C(=O)[C@@]2(C)[C@H]([C@H](OC(=O)c3ccccc3)[C@]3(O)C[C@H](OC(=O)[C@H](O)[C@@H](NC(=O)c4ccccc4)c4ccccc4)C(C)=C1C3(C)C)[C@]1(OC(C)=O)CO[C@@H]1C[C@@H]2O [PACLITAXEL]
IC50 [1]: > 400 nM | IC50 [2]: 1.76 nM | IC50 [3]: 2.47 nM

CC(=O)O[C@@H](C)/C=C\C(=O)N[C@@H]1C[C@H](C)[C@H](C/C=C(C)/C=C/[C@H]2O[C@H](CC(=O)O)C[C@@](O)(CCl)[C@@H]2O)O[C@@H]1C [THAILANSTATIN B]
IC50 [1]: > 1000 nM | IC50 [2]: 194 nM | IC50 [3]: 856 nM
